Values quoted from earlier work as cited in patent publication US5919783A, “Indoline and azaindoline derivatives as 5-HT1D alpha receptor agonists” (Merck Sharp & Dohme Ltd., priority 1994, dated 1999).

Key:
[1] = tested on: human 5-HT1Dα and 5-HT1Dβ receptor subtypes; settings: cf. WO-A-91/17174, Table 1
[2] = therapeutic doses

discrimination between human 5-HT1Dα and 5-HT1Dβ receptor subtypes (in words) [1]: barely discriminates
SMILES: CNS(=O)(=O)Cc1ccc2[nH]cc(CCN(C)C)c2c1 [sumatriptan]
adverse events in humans [2]: adverse cardiovascular events
